# Test results as given in US20240208963A1, “CRYSTALLINE MELANOCORTIN SUBTYPE-2 RECEPTOR (MC2R) ANTAGONIST” (Crinetics Pharmaceuticals, Inc., priority 2022, published 2024).
# Entries after “also recorded” stand apart in the source; their conditions may differ. Structures can show the parent of a compound that is named as a salt. Where two headings read alike, the source gives them in different places. Marks after values point to notes of the source that are not given here.
# Assays:
# [1] = Salt screening XRPD stages: drying and overnight humidity exposure; settings: for Form stability upon drying (XRPD): dried under vacuum at 50° C. for at least 3 h
# Method: XRPD analysis is typically done in three stages: 1) Wet: XRPD of the wet cake is done for all samples whenever solids appropriate for sampling were observed. 2) Dry: Unique solids are then left on XRPD plates and dried under vacuum at 50° C. for at least 3 h. XRPD of unique dry solids are then collected. 3) Humid: Solids are then exposed to >95% relative humidity overnight and XRPD on resulting solids is collected. The humid environment is generated by placing a beaker of saturated potassium sulfate in water in a sealed container. This procedure is not carried out for any amorphous solids obtained. All XRPD patterns are compared to counter ion XRPD patterns and known free molecule patterns.
# A qualitive humidity exposure test was performed by exposing approximately 10 mg of the maleate to 80% RH overnight.
# [2] = Form stability at ambient conditions for one week (XRPD); type: physicochemical; settings: maleate
# Source text: Some of the samples generated in the antisolvent crystallization experiments were mixtures of Pattern B, Pattern C, and Pattern D. These samples were left at ambient conditions for one week, then analyzed again by XRPD.
# Pure Pattern B was generated in the antisolvent crystallization with MIBK and heptane. […] The solids were scraped from the XRPD plate and used for simultaneous TGA/DSC analysis. […] After the solids required for the TGA/DSC analysis were transferred to the pan, the remainder of the solids were re-pressed to the XRPD sample plate and analyzed again.
# [3] = Solubility of solid state forms in solvents (gravimetric or solvent addition); type: physicochemical
# Method: The solubility of certain solid state forms of Compound I was determined in various solvents by either gravimetric solubility or solvent addition.
# About 25 mg of compound was weighed into vials. Approximately 5 vol. (0.125 mL) of solvent was added to the solids and the mixtures stirred at the designated temperature (RT or 50° C.). Solutions were noted and an additional 0.125 mL of solvent was added to the slurries. […] If a thicker slurry was noted, 0.25 mL of solvent was added (total volume 0.5 mL). If a thick slurry was again noted, an additional 0.25 mL of solvent was added (total volume 0.75 mL). After stirring for 2 days, the slurries were centrifuged, the supernatant was collected into preweighed vials, and the solvent evaporated at 50° C. (ambient pressure) without stirring. The vials containing the solid residues were dried in a vacuum oven at 50 C, 10^−2-10^−1 Torr, for 3 h before weighing again to determine the mass of solid that was dissolved in the supernatant (i.e. mg solid/mL solvent).
# About 20 mg of compound was weighed into vials. Solvent was added in aliquots and stirred at the designated temperature until complete dissolution was observed. This measurement gave a solubility range.
# [4] = Solubility in simulated fluids and water; type: physicochemical; settings: 37° C., 30 min
# Method: Calibration samples for solubility in simulated fluids were prepared with freebase Compound I.
# Solubility in simulated fluids were studied with the mandelate and maleate solids. The simulated fluids FaSSIF (fasted-state intestinal), FaSSGF (fasted-state gastric), and FeSSIF (fed-state intestinal) were removed from the refrigerator, warmed to room temperature, and the pH of each was measured. Between 1.9 and 2.0 mg of each salt was weighed into four vials and 1 mL of each fluid was added, including water. Stir bars (10 mm) were added to the vials and the vials were stirred at 37° C. After 30 mi (mandelate samples) or 1 h (maleate samples), the pH of each solution was measured, then 400 μL of each was removed and syringe filtered with 0.45 µm syringe filters. Approximately 300 μL of the recovered filtrate was diluted 5× with diluent and injected for HPLC analysis. The remainder of the samples in the vials were allowed to stir overnight. After 24 h stirring at 37° C., samples were filtered and diluted as before, and injected for analysis.
# [5] = Stability of crystalline forms at 40° C. and 75% relative humidity (XRPD, HPLC purity)
# Method: Approximately 10 mg of the Crystalline Pattern D of Compound I Maleate, 20 mg of the Crystalline Pattern C of Compound I Maleate, and 10 mg of the Crystalline Pattern E of Compound I Mandelate were weighed into open 4 mL vials that were placed into a 20 mL vial containing a saturated NaCl solution. The vial was sealed and kept at 40° C. for 7 days, creating an atmosphere at 75% relative humidity in the system. After 7 days, the materials were sampled and plated for XRPD analysis.
# The stability test was repeated on Patterns C and D of Compound I Maleate for 11 days.
# [6] = Dynamic vapor sorption (DVS); type: physicochemical
# Method: DVS was performed using a DVS Intrinsic 1. The sample (20-25 mg) was loaded into a sample pan, suspended from a microbalance and exposed to a humidified stream of nitrogen gas. The sample was held for a minimum of 5 min at each level and only progressed to the next humidity level if there was <0.002% change in weight between measurements (interval: 60 s) or 240 min had elapsed. The following program was used: • 1. Equilibration at 50% RH • 2. 50% to 2%. (50%, 40%, 30%, 20%, 10%, and 2%) • 3. 2% to 95% (2%, 10%, 20%, 30%, 40%, 50%, 60%, 70%, 80%, 90%, and 95%) • 4. 95% to 2% (95%, 80%, 70%, 60%, 50%, 40%, 30%, 20%, 10%, and 2%) • 5. 2% to 50% (2%, 10%, 20%, 30%, 40%, and 50%)
# [7] = 40° C., 75% relative humidity, 7 days
compound,measurement,setting,value
"CCOc1ccccc1-c1ccc(N2CCN(C(=O)C3(C(F)(F)F)CCC3)C[C@H]2CC)c(C(=O)N[C@@H]2CN3CCC2CC3)n1.O=C(O)/C=C\C(=O)O [Pattern B, N-[(3S)-1-azabicyclo[2.2.2]octan-3-yl]-6-(2-ethoxyphenyl)-3-[(2R)-2-ethyl-4-[1-(trifluoromethyl)-cyclobutanecarbonyl]piperazin-1-yl]pyridine-2-carboxamide maleate]",Form stability upon drying (XRPD),[1],mostly converts to Pattern C
same,Form conversion by XRPD at ambient conditions,[2],converted to Pattern C; also recorded: some low intensity peaks associated with Pattern C
"CCOc1ccccc1-c1ccc(N2CCN(C(=O)C3(C(F)(F)F)CCC3)C[C@H]2CC)c(C(=O)N[C@@H]2CN3CCC2CC3)n1 [Compound I Maleate, N-[(3S)-1-azabicyclo[2.2.2]octan-3-yl]-6-(2-ethoxyphenyl)-3-[(2R)-2-ethyl-4-[1-(trifluoromethyl)-cyclobutanecarbonyl]piperazin-1-yl]pyridine-2-carboxamide maleate]",Mass gain in qualitative humidity exposure test,"[1]; 80% RH overnight, approximately 10 mg",No detectable mass gain
same,solubility,"[3]; EtOAc, 50° C., maleate",34 mg/mL
same,solubility,"[3]; EtOAc, RT, maleate",21 mg/mL
same,solubility,"[3]; EtOH, RT, maleate",>200 mg/mL
same,solubility,"[3]; IPAc, 50° C., maleate",13 mg/mL
same,solubility,"[3]; IPAc, RT, maleate",8 mg/mL
same,solubility,"[3]; MEK, RT, maleate",>200 mg/mL
same,solubility,"[3]; MIBK, 50° C., maleate",71 mg/mL
same,solubility,"[3]; MIBK, RT, maleate",49 mg/mL
same,solubility,"[3]; MeOH, RT, maleate",>200 mg/mL
same,solubility,"[3]; MtBE, 50° C., maleate",4 mg/mL
same,solubility,"[3]; MtBE, RT, maleate",4 mg/mL
same,solubility,"[3]; THF, RT, maleate",>200 mg/mL
same,solubility,"[3]; acetone, RT, maleate",>200 mg/mL
same,solubility,"[3]; cyclohexane, 50 °C, organic solvent or mixture, thermodynamic from solid, cyclohexane, 50° C., read-out: Solubility",3 mg/mL
same,solubility,"[3]; cyclohexane, organic solvent or mixture, thermodynamic from solid, cyclohexane, RT, read-out: Solubility",< 3 mg/mL
same,solubility,"[3]; n-heptane, 50° C., maleate",3 mg/mL
same,solubility,"[3]; n-heptane, RT, maleate",<3 mg/mL
N-[(3S)-1-azabicyclo[2.2.2]octan-3-yl]-6-(2-ethoxyphenyl)-3-[(2R)-2-ethyl-4-[1-(trifluoromethyl)-cyclobutanecarbonyl]piperazin-1-yl]pyridine-2-carboxamide mandelate [mandelate Pattern E],Sample pH,[4]; FaSSGF (initial pH 1.49),1.53
same,Sample pH,[4]; FaSSIF (initial pH 6.35),6.41
same,Sample pH,[4]; FeSSIF (initial pH 4.83),4.89
same,"Stability after humidity exposure (XRPD, deliquescence)",[1]; >90% relative humidity overnight,no deliquescence or loss of crystallinity
same,Form stability upon drying (XRPD),[1],stable
same,Change by XRPD after storage,[5]; [7],No visible change
same,Degradation by HPLC purity analysis after storage,[5]; [7],no degradation
same,Stability on storage (in words),[5]; over a week at 40° C. and 75% RH,stable
same,Hygroscopicity (in words),[6]; DVS,moderately hygroscopic
same,Change by XRPD following the DVS analysis,[6]; after DVS from 2 to 95% RH,No change
same,Reversible mass gain (DVS),[6]; from 2 to 95% relative humidity,5.68 wt. %
same,Behaviour at high humidity,[6]; high humidity,began to convert to amorphous
"CCOc1ccccc1-c1ccc(N2CCN(C(=O)C3(C(F)(F)F)CCC3)C[C@H]2CC)c(C(=O)N[C@@H]2CN3CCC2CC3)n1 [Compound I, N-[(3S)-1-azabicyclo[2.2.2]octan-3-yl]-6-(2-ethoxyphenyl)-3-[(2R)-2-ethyl-4-[1-(trifluoromethyl)-cyclobutanecarbonyl]piperazin-1-yl]pyridine-2-carboxamide]",solubility,"[3]; EtOAc, RT, listed as Amorphous free base",>500^a mg/mL
same,solubility,"[3]; EtOH, RT, listed as Amorphous free base",>500^a mg/mL
same,solubility,"[3]; IPA:water (1:1 vol.), aqueous with cosolvent or surfactant or cyclodextrin, thermodynamic from solid, IPA:water (1:1 vol.), RT, read-out: Solubility",167 to 250 mg/mL
same,solubility,"[3]; MIBK, RT, listed as Amorphous free base",>500^a mg/mL
same,solubility,"[3]; MtBE, RT, listed as Amorphous free base",>500^a mg/mL
same,solubility,"[3]; acetone, RT, listed as Amorphous free base",>500^a mg/mL
same,Solubility (in words),[3]; all solvents tested except heptane and IPA:water (1:1 vol.),freely soluble
same,Solubility (in words),[3]; heptane,low solubility
same,solubility,"[3]; n-heptane, RT, listed as Amorphous free base",<26 mg/mL
same,solubility,"[3]; toluene, organic solvent or mixture, thermodynamic from solid, toluene, RT, read-out: Solubility",> 500 mg/mL
